Laboratory results: US4880777A, “Synthetic peptides having growth hormone releasing activity” (Eastman Kodak Company, priority 1987, dated 1989)
“And” between values parts separate entries of the source, which are not always exact repeats. Equal entries are not always repeated. Where a SMILES comes first, the peptide text is derived from it. Bridges are numbered along the chain shown (N, C = ends). [ ]: non-standard residue; d: D form. Nle = CCCC[C@H](N)C(=O)O

Experiments:
growth hormone (GH) [1] = experiment: In vivo GH release in rats (serum GH by RIA, 10 minutes after i.v. injection); parameters: species or system Sprague-Dawley rats; settings: for GH Release: immature female rats, serum GH 10 minutes after injection, mean ± SEM; for potency compared with Compound A (in words) / release of growth hormone when administered to rats via i.v. injection (in words): rats, i.v. injection
Protocol: (§1) Immature female Sprague-Dawley rats were obtained from the Charles River Laboratories (Wilmington, Mass.). After arrival they were housed at 25° C. with 14:10 hour light:dark cycle. Water and Purina rat choow were availablle ad libitum. Pups were kept with their mothers until 21 days of age.
(§2) Normal saline with 0.1% gelatin was the vehicle for s.c. and i.v. injections of Compounds 1 and 2 . The unanesthetized rats, weighing 55-65 grams, were injected i.v. with 0.2 ml solution via the tail vein. All animals were sacrificed by quillotine 10 minutes after the final test injection unless specified otherwise. Trunk blood for growth hormone (GH) determinations was collected following decapitation. The blood was allowed to clot, centrifuged and the serum separated from the clot. Serum was kept frozen until the day of sampling for radioimmunoassay (RIA) of growth hormone levels according to the following procedure, as developed by the National Institute of Arthritis, Diabetes and Digestive and Kidney Diseases (NIADDK).
Reagents are generally added to the RIA analysis tubes at a single sitting, at refrigerator temperature (about 4° C.) in the following sequence:
(b) "cold" (i.e., non-radioactive) standard or unknown serum sample to be analyzed,
(c) radio-iodinated growth hormone antigen, and
(d) growth hormone antiserum.
Reagent addition is generally carried out so that there is achieved a final RIA tube dilution in the range of about 1:10,000 up to 1:500,000 (antiserum to total liquid volume; vol:vol).
(§3) The mixed reagents are then typically incubated at room temperature (about 25° C.) for about 24 hours prior to addition of a second antibody (e.g., goat or rabbit anti-monkey gamma globulin serum) which binds to and cause precipitation of the complexed growth hormone antiserum. Precipitated contents of the RIA tubes are then analyzed for the number of counts in a specified period of time in a gamma scintillation counter. A standard curve is prepared by plotting number of radioactive counts as a function of growth hormone (GH) level. GH levels of unknowns are then determined by reference to the standard curve.
(§4) Serum GH was measured by RIA with reagents provided by the National Hormone and Pituitary Program. Serum levels are recorded in ng/ml in terms of the rat GH standard with 0.61 IU/mg. Data is recorded as the mean ± standard error of the mean (SEM). Statistical analysis was performed with student's t-test.

growth hormone (GH) [2] = experiment: In vivo synergistic effects on GH release in rats of combinations with Compound B (Group 3) and Compound C (Group 2); settings: for synergism with Group 3 Compound B (in words): combination with Compound B (Tyr-DArg-Phe-Gly-NH2)
Protocol: as §1, §2, §3, §4
Compound 1 and Compound 2 of Examples 1 and 2, respectively, were each combined with the Group 2 and/or Group 3 polypeptides identified in Table 4 below and in the proprotions shown. The combinations were then tested for GH release in rats by the same procedure set forth in Example 3.

[3] = dose 10 of Column A compound combined with 30 μg Compound B
[4] = dose 30 of Column A compound combined with 30 μg Compound B

Row | Compound | GH Release (growth hormone (GH) [1]; 3 μg i.v.) [ng/mL] | GH Release (growth hormone (GH) [1]; 10 μg i.v.) [ng/mL] | GH Release (growth hormone (GH) [1]; 30 μg i.v.) [ng/mL] | potency compared with Compound A (in words) (growth hormone (GH) [1]) | release of growth hormone when administered to rats via i.v. injection (in words) (growth hormone (GH) [1]) | synergism with Group 3 Compound B (in words) (growth hormone (GH) [2]) | GH Release by Compound in Column A (growth hormone (GH) [2]; dose 3, compound alone) [ng/mL] | GH Release of Compound in Column A & 30 μg Compound B (growth hormone (GH) [2]; dose 3 of Column A compound combined with 30 μg Compound B) [ng/mL] | GH Release by Compound in Column A (growth hormone (GH) [2]; dose 10, compound alone) | GH Release of Compound in Column A & 30 μg Compound B (growth hormone (GH) [2]; [3]) | GH Release by Compound in Column A (growth hormone (GH) [2]; dose 30, compound alone) [ng/mL] | GH Release of Compound in Column A & 30 μg Compound B (growth hormone (GH) [2]; [4]) [ng/mL] | GH Release (growth hormone (GH) [1]; 100 μg i.v.) [ng/mL] | GH Release of Compound in Column A & 30 μg Compound B & 10 μg Compound C (growth hormone (GH) [2]; dose 10 of Column A compound combined with 30 μg Compound B and 10 μg Compound C) [ng/mL] | GH Release by Compound in Column A (growth hormone (GH) [2]; dose 100, compound alone) [ng/mL] | GH Release of Compound in Column A & 30 μg Compound B (growth hormone (GH) [2]; dose 100 of Column A compound combined with 30 μg Compound B) [ng/mL]
1 | CCCC[C@H](NC(=O)[C@@H](NC(=O)[C@H](CC(=O)O)NC(=O)[C@H](CCC(N)=O)NC(=O)[C@H](CC(C)C)NC(=O)[C@H](CC(C)C)NC(=O)[C@H](CCCCN)NC(=O)[C@H](CCCNC(=N)N)NC(=O)[C@H](C)NC(=O)[C@H](CO)NC(=O)[C@H](CC(C)C)NC(=O)[C@H](CCC(N)=O)NC(=O)[C@@H]1CSSC[C@H](NC(=O)[C@H](CC(N)=O)NC(=O)[C@@H](NC(=O)[C@H](Cc2ccccc2)NC(=O)[C@@H](NC(=O)[C@H](C)NC(=O)[C@H](CC(=O)O)NC(=O)[C@H](C)NC(=O)[C@@H](N)Cc2ccc(O)cc2)[C@@H](C)CC)[C@@H](C)O)C(=O)N[C@@H](Cc2ccc(O)cc2)C(=O)N[C@@H](CCCNC(=N)N)C(=O)N[C@@H](CCCCN)C(=O)N[C@@H](C(C)C)C(=O)N[C@@H](CC(C)C)C(=O)N1)[C@@H](C)CC)C(=O)N[C@@H](CO)C(=O)N[C@@H](CCCNC(=N)N)C(N)=O [Compound 2] (H-YADAIFTNCYRKVLCQLSARKLLQDI[Nle]SR-NH2; disulfide 9-15) | 62 ± 8 | 99 ± 11 | 132 ± 24 | potencies similar to Compound A | highly active | act synergistically | 62 ± 8 | 1689 ± 264 | 99 ± 11 ng/mL and 105 ± 29 ng/mL | 3733 ± 515 ng/mL and 2241 ± 323 ng/mL | 132 ± 24 | 2652 ± 560 |  |  |  | 
2 | CCCC[C@H](NC(=O)[C@@H](NC(=O)[C@H](CC(=O)O)NC(=O)[C@H](CCC(N)=O)NC(=O)[C@H](CC(C)C)NC(=O)[C@H](CC(C)C)NC(=O)[C@H](CCCCN)NC(=O)[C@H](CCCNC(=N)N)NC(=O)[C@H](C)NC(=O)[C@H](CO)NC(=O)[C@H](CC(C)C)NC(=O)[C@H](CCC(N)=O)NC(=O)[C@H](CS)NC(=O)[C@H](CC(C)C)NC(=O)[C@@H](NC(=O)[C@H](CCCCN)NC(=O)[C@H](CCCNC(=N)N)NC(=O)[C@H](Cc1ccc(O)cc1)NC(=O)[C@H](CS)NC(=O)[C@H](CC(N)=O)NC(=O)[C@@H](NC(=O)[C@H](Cc1ccccc1)NC(=O)[C@@H](NC(=O)[C@H](C)NC(=O)[C@H](CC(=O)O)NC(=O)[C@H](C)NC(=O)[C@@H](N)Cc1ccc(O)cc1)[C@@H](C)CC)[C@@H](C)O)C(C)C)[C@@H](C)CC)C(=O)N[C@@H](CO)C(=O)N[C@@H](CCCNC(=N)N)C(N)=O [Compound 1] (H-YADAIFTNCYRKVLCQLSARKLLQDI[Nle]SR-NH2) |  | 145 ± 41 | 151 ± 33 | potencies similar to Compound A | highly active | act synergistically |  |  | 145 ± 41 ng/mL and 77 ± 10 ng/mL | 3314 ± 275 ng/mL and 2078 ± 395 ng/mL | 151 ± 33 | 2875 ± 472 | 374 ± 94 | 4947 ± 366 | 374 ± 94 | 2328 ± 297
